Test systems include SN12C renal; IGROV1 ovarian; K-562 leukemia; NCI-H226 lung; T-47D breast; COLO 205 colon; HOP-92 NSCLC; SK-MEL-2 melanoma; OVCAR-8 ovarian; HCT-15 colon.
Test in all cases: DTP human tumour cell line panel, 48 h

Structures are written as SMILES. “And” between values parts separate entries of the source, which are not always exact repeats. Identical values can stand only once.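 Grown in 96-well plates, cells were treated for 48 hours with each compound at five concentrations. Insufficient inhibition: endpoint recorded as highest concentration tested. The concentration for 50% growth inhibition is given as GI50. TGI: concentration producing complete growth inhibition.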

The GI50 is the concentration at which growth is held to half of that of the control. As usually defined, the TGI is the concentration at which net growth stops. High values mean lower sensitivity of the cells, low ones greater sensitivity of the cells. Consider `C[C@]12C[C@H](CCCCCCNCCOC(=O)NCCCc3ccc(N(CCCl)CCCl)cc3)C3=C4CCC(=O)C=C4CCC3C1CC[C@@H]2O` (some centres undefined), for which the GI50 with SN12C renal is 1.89 µM; in the test with IGROV1 ovarian it was 0.334 µM; with K-562 leukemia it was 0.308 µM; with NCI-H226 lung it was 2.15 µM; in the test with T-47D breast, 1.17 µM; in the test with COLO 205 colon, 1.45 µM. Further, the total growth inhibition concentration (TGI) with SN12C renal came out at 3.39 µM; in the test with IGROV1 ovarian it was 2.11 µM; with K-562 leukemia, 1.07 µM; with NCI-H226 lung it was 4.15 µM; in the test on T-47D breast, 4.5 µM; in the test on COLO 205 colon it was 3.9 µM.
Turning to `CCOC(=O)/C(C=Nc1ccc(-c2nc3ccccc3[nH]2)cc1)=C(/C)O`, the GI50 is 19.4 µM in the test on HOP-92 NSCLC; 9140 nM with SK-MEL-2 melanoma; 14.5 µM in the test with SN12C renal; 8.78 µM with OVCAR-8 ovarian; 7.35 µM in the test with IGROV1 ovarian; 10.1 µM in the test with HCT-15 colon. Also, the results for the GI50 with K-562 leukemia, with T-47D breast and in the test with COLO 205 colon were 4.51 µM, 10.3 µM and 10.7 µM, respectively. Moreover, the total growth inhibition concentration (TGI) in the test on HOP-92 NSCLC is over 50 µM; in the test with SK-MEL-2 melanoma, 22.6 µM; in the test with SN12C renal, over 50 µM; in the test on OVCAR-8 ovarian it was 17.7 µM; in the test on IGROV1 ovarian, 16.2 µM; in the test with HCT-15 colon, 24.4 µM. The concentration for total growth inhibition (TGI) with K-562 leukemia worked out at 14.8 µM; with T-47D breast it was 35.4 µM; with COLO 205 colon, 33.4 µM.
For `CCCCCCCCNc1cc2c3c(c1)CCCN3CCC2`, the GI50 in the test on SK-MEL-2 melanoma was 3060 nM; in the test on SN12C renal it was 2.56 µM; with OVCAR-8 ovarian it was 1.87 µM; in the test with IGROV1 ovarian it was 1.77 µM; with HCT-15 colon it was 10.5 µM; with K-562 leukemia, 0.433 µM. The GI50 with NCI-H226 lung is 2.46 µM; in the test on T-47D breast, 1.34 µM; with COLO 205 colon it was 1.87 µM. In addition, the TGI in the test on SK-MEL-2 melanoma is 12.7 µM; in the test on SN12C renal it was 14.7 µM; in the test on OVCAR-8 ovarian it was 20.3 µM; with IGROV1 ovarian, 8.3 µM; in the test with HCT-15 colon, 38.5 µM; with K-562 leukemia, over 100 µM. Moreover, the concentration for total growth inhibition (TGI) came to 16.4 µM in the test on NCI-H226 lung, 21 µM in the test with T-47D breast and 4.76 µM with COLO 205 colon.
For `COC(=O)C1CC23CCCN4CCC5(c6ccccc6N(C=O)C15CC2)C43` (centres undefined), the TGI with HOP-92 NSCLC, in the test with SK-MEL-2 melanoma, with SN12C renal, in the test on OVCAR-8 ovarian, with IGROV1 ovarian and with HCT-15 colon was over 100 µM in each case. Also, the total growth inhibition concentration (TGI) in the test on NCI-H226 lung, in the test on T-47D breast and with COLO 205 colon was over 100 µM throughout.
`C=C1C(=O)O[C@@H]2C[C@@H](C)[C@@H]3C=CC(=O)[C@@]3(C)[C@@H](O)[C@H]12`: the TGI was 4.04 µM in the test with SK-MEL-2 melanoma; 2.91 µM with SN12C renal; 5.71 µM with OVCAR-8 ovarian; 8.1 µM with IGROV1 ovarian; 9.54 µM with HCT-15 colon; 8.34 µM in the test with K-562 leukemia. Also, the TGI was 4.9 µM with NCI-H226 lung, 12.2 µM in the test on T-47D breast and 5.11 µM in the test on COLO 205 colon.
Take `COc1ccc(/C=C/C(=O)c2cc(OC)c(OC)c(OC)c2)cc1OCc1cn(Cc2ccc(F)cc2)nn1`: the GI50 was 10600 nM with SK-MEL-2 melanoma; 3.12 µM with SN12C renal; 2.58 µM with OVCAR-8 ovarian; 7.4 µM in the test with IGROV1 ovarian; 2.04 µM in the test with HCT-15 colon; 3.6 µM in the test with K-562 leukemia. For the same compound, the GI50 was 2.26 µM in the test on NCI-H226 lung, 3.05 µM in the test on T-47D breast and 2.98 µM in the test on COLO 205 colon. The TGI in the test with SK-MEL-2 melanoma was 41 µM; in the test on SN12C renal, over 100 µM; in the test with OVCAR-8 ovarian, 31.5 µM; in the test on IGROV1 ovarian, over 100 µM; in the test on HCT-15 colon, over 100 µM; in the test with K-562 leukemia it was over 100 µM. The total growth inhibition concentration (TGI) with NCI-H226 lung is 7.67 µM; in the test with T-47D breast it was over 100 µM; in the test with COLO 205 colon it was 8.38 µM.
For the compound `Cc1cccc(/C=C/c2c(C(=O)/C=C/c3ccccc3)c(C)nc3ccccc23)c1`, the GI50 in the test with HOP-92 NSCLC is 1.48 µM; in the test on SK-MEL-2 melanoma it was 1770 nM; with SN12C renal it was 1.68 µM; in the test with IGROV1 ovarian, 1.44 µM; in the test with HCT-15 colon, 1.26 µM; in the test with NCI-H226 lung, 1.73 µM. In addition, the GI50 in the test with T-47D breast was 1.29 µM; with COLO 205 colon, 1.81 µM. Also, the TGI turned out to be 4 µM in the test with HOP-92 NSCLC; 3.63 µM with SK-MEL-2 melanoma; 3.5 µM in the test on SN12C renal; 4 µM with IGROV1 ovarian; 3.57 µM in the test on HCT-15 colon; 3.82 µM with NCI-H226 lung. Further, the TGI in the test on T-47D breast was found to be 3.66 µM; in the test with COLO 205 colon, 4.34 µM.
As to `Clc1nc(Cl)c2ncn(CC3(Cn4cnc5c(Cl)nc(Cl)nc54)COC3)c2n1`, the GI50 in the test on HOP-92 NSCLC is 0.33 µM; in the test with SN12C renal, 0.26 µM; in the test with OVCAR-8 ovarian, 0.256 µM; with IGROV1 ovarian it was 0.209 µM; in the test on HCT-15 colon, 0.178 µM; with NCI-H226 lung, 1.77 µM. The GI50 with T-47D breast is 0.179 µM; with COLO 205 colon it was 0.184 µM. In addition, the TGI was determined as 0.876 µM in the test with HOP-92 NSCLC; 0.776 µM in the test on SN12C renal; 0.532 µM in the test on OVCAR-8 ovarian; 0.405 µM with IGROV1 ovarian; 0.361 µM in the test with HCT-15 colon; 3.68 µM in the test on NCI-H226 lung. Further, the TGI in the test with T-47D breast came out at 0.391 µM; in the test with COLO 205 colon, 0.356 µM.
With `COc1ncnc2c(-c3ccccc3)cn(COCc3ccccc3)c12`, the GI50 with SK-MEL-2 melanoma was 2080 nM; in the test with SN12C renal, 3.12 µM; in the test on OVCAR-8 ovarian it was 3.02 µM; with IGROV1 ovarian it was 7.16 µM; in the test on HCT-15 colon, 2.48 µM; in the test with K-562 leukemia, 3.32 µM. The GI50 with NCI-H226 lung was 2.03 µM; in the test on T-47D breast, 3.04 µM; with COLO 205 colon, 2.69 µM. Besides, the TGI with SK-MEL-2 melanoma is 4.99 µM; with SN12C renal it was 30 µM; in the test on OVCAR-8 ovarian, 11.7 µM; in the test on IGROV1 ovarian it was over 100 µM; in the test with HCT-15 colon it was over 100 µM; in the test with K-562 leukemia, over 100 µM. The TGI worked out at 8.12 µM in the test on NCI-H226 lung, 9.84 µM in the test with T-47D breast and 7.73 µM in the test with COLO 205 colon.
For `O=C(c1ccccc1)c1ccccc1-c1ccccc1`, the GI50 with HOP-92 NSCLC was 3.36 µM; in the test with SK-MEL-2 melanoma, 1650 nM; in the test with SN12C renal, 8.46 µM; in the test with OVCAR-8 ovarian it was 4.77 µM; in the test on IGROV1 ovarian it was 3.32 µM; with HCT-15 colon it was 2.74 µM. The GI50 in the test on NCI-H226 lung is 19.6 µM; with T-47D breast it was 6.08 µM; in the test with COLO 205 colon it was 2.87 µM. Also, the TGI in the test on HOP-92 NSCLC was 47.1 µM; in the test on SK-MEL-2 melanoma it was 9.48 µM; with SN12C renal, over 100 µM; with OVCAR-8 ovarian, 52.4 µM; in the test on IGROV1 ovarian it was over 100 µM; in the test with HCT-15 colon, over 100 µM. Besides, the total growth inhibition concentration (TGI) in the test on NCI-H226 lung is over 100 µM; in the test with T-47D breast, over 100 µM; with COLO 205 colon it was 8.37 µM.
As to `O=c1[nH]nnc2c1ncn2C1OC(CO)C(O)C1O` (centres undefined), the GI50 with SK-MEL-2 melanoma is 707 nM; with SN12C renal, 38.3 µM; with OVCAR-8 ovarian, 4.73 µM; in the test on IGROV1 ovarian, 2.96 µM; with HCT-15 colon, 8.04 µM; in the test on K-562 leukemia, 2.26 µM. The GI50 was 10.3 µM in the test on NCI-H226 lung, 38.8 µM in the test on T-47D breast and 6.09 µM in the test on COLO 205 colon. Further, the TGI in the test on SK-MEL-2 melanoma was 12.2 µM; with SN12C renal it was over 100 µM; with OVCAR-8 ovarian it was over 100 µM; in the test with IGROV1 ovarian it was over 100 µM; in the test on HCT-15 colon it was over 100 µM; in the test on K-562 leukemia, over 100 µM. The TGI in the test with NCI-H226 lung, with T-47D breast and in the test with COLO 205 colon was over 100 µM each time.
As to `CC(C)Cn1cnc2c(SCc3ccc(Cl)cc3Cl)nc(N)nc21`, the concentration for total growth inhibition (TGI) in the test with HOP-92 NSCLC was 69.9 µM; in the test on SK-MEL-2 melanoma, over 100 µM; in the test with SN12C renal, over 100 µM; with OVCAR-8 ovarian, 93.3 µM; in the test with IGROV1 ovarian it was over 100 µM; with HCT-15 colon, over 100 µM. For the same compound, the total growth inhibition concentration (TGI) in the test on K-562 leukemia is over 100 µM; with T-47D breast, over 100 µM; in the test on COLO 205 colon, 24.6 µM.
On to `CN(O)C(=O)SCC(NC(=O)CCC(N)C(=O)O)C(=O)NCC(=O)O` (centres undefined), for which the GI50 in the test with HOP-92 NSCLC is over 2000 µM; in the test with SK-MEL-2 melanoma it was > 2000 nM and 524000 nM; in the test with SN12C renal, over 2000 µM; with OVCAR-8 ovarian it was over 2000 µM; with IGROV1 ovarian it was over 2000 µM; with HCT-15 colon, over 2000 µM. The GI50 with K-562 leukemia was > 2 µM and 812 µM; in the test on NCI-H226 lung, over 2000 µM; with COLO 205 colon, over 2000 µM. For the same compound, the TGI in the test on HOP-92 NSCLC, in the test on SK-MEL-2 melanoma, with SN12C renal, in the test with OVCAR-8 ovarian, in the test on IGROV1 ovarian and with K-562 leukemia was over 2000 µM each time. In addition, the concentration for total growth inhibition (TGI) with NCI-H226 lung and in the test with COLO 205 colon was over 2000 µM throughout.
`O=C1N(C2CCCCC2)CC12CCCCC2`: the TGI in the test on HOP-92 NSCLC, in the test with SK-MEL-2 melanoma, with SN12C renal, in the test with OVCAR-8 ovarian, in the test with IGROV1 ovarian and in the test on HCT-15 colon was over 100 µM in each case. The total growth inhibition concentration (TGI) in the test on K-562 leukemia, with NCI-H226 lung and in the test on COLO 205 colon was over 100 µM each time.
Consider `O=C(Nc1ccc([As](=O)(O)O)cc1)Nc1cccc(Cl)c1Cl`, for which the total growth inhibition concentration (TGI) with HOP-92 NSCLC, in the test on SK-MEL-2 melanoma, in the test on SN12C renal, in the test on OVCAR-8 ovarian, in the test with IGROV1 ovarian and with HCT-15 colon was over 100 µM each time. Also, the TGI in the test on K-562 leukemia, in the test on NCI-H226 lung and in the test with COLO 205 colon was over 100 µM in each case.

The record behind these values is PubChem BioAssay (NCI).
